# Laboratory results taken from US7063959B1, “Compositions of the SOC/CRAC calcium channel protein family” (priority 1998, dated 2006).
# Test system: SOC/CRAC calcium channel
# Assay: Pharmacologic behavior of SOC/CRAC: calcium influx elicited by store depletion (fura-2) in SOC/CRAC-expressing cells
# Format: cell-based
# Conditions: SOC/CRAC expressed in RBL-2H3 mast cells by recombinant vaccinia virus; stores depleted with thapsigargin; cells pre-incubated with reagent; effect substantially the same as on endogenous thapsigargin-dependent calcium influx
compound,measurement,value
"CCCCCCCCCCCCC/C=C/[C@@H](O)[C@@H](N)CO [sphingosine, Sphingosine]",SOC/CRAC-enhanced calcium influx,inhibited
